Test: gradient 5% acetonitrile 3 min, to 50% in 2 min, to 85% in 15 min, held 3 min, 100 µL/min
Settings: column: Zorbax Extend-C18 2.1 x 50 mm; eluents: water / acetonitrile, 0.1% formic acid
Procedure, shortened: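 The system's dead and dwell volumes were 40 μL and 900 μL, with a Zorbax Extend-C18 column (2.1 × 50 mm, 1.8 μm) run at 100 μL/min in water and acetonitrile containing 0.1% formic acid each. Pure standards were analyzed in mixtures of ~100 molecules by HPLC–quadrupole time-of-flight mass spectrometry in positive and negative ionization mode. Retention time was assigned from computationally picked, manually inspected adduct peaks.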

| Structure (SMILES) | RP-LC retention time |
| --- | --- |
| COC(=O)C1=CN(C2CC2)c2cc(N3CCN(C(C)C)CC3)c(F)cc2S1(=O)=O | 740 s |
| CC(C)CN1CCCn2ccnc2C1C1CCN(C(=O)C(C)C)CC1 (stereo not given) | 587 s |
| O=C([C@@H]1C[C@H](Oc2ccccc2)CN1C(=O)c1ccoc1)N1CCCC1 | 733 s |
| CN(CC1CCOC1)C(=O)c1cccc(Br)c1 (stereo not given) | 718 s |
| CN(C)CCCNC(=O)C1CCN(c2nc3ccc(-c4cccs4)nc3s2)CC1 | 647 s |
| Cc1ccc(NC(=O)CN2C(=O)NC3(CCCCC3)C2=O)c(C)c1 | 774 s |
| COc1ccc(N2CCn3c2nn(CC(=O)NCc2ccco2)c(=O)c3=O)cc1 | 634 s |
| Cc1cccc2c(C(=O)N3CCCC3)cc(N(C)C)nc12 | 605 s |
| CC(NC(=O)C1CC(=O)N(c2ccc3c(c2)CCN3C(=O)C2CC2)C1)c1ccccc1 (stereo not given) | 740 s |
| CN(C(=O)C1CCN(S(=O)(=O)c2ccc3c(c2)sc(=O)n3C)CC1)C1CCCCC1 | 910 s |
| O=C(NC1CCCCC1)c1ccc(CN2CCN(Cc3ccc(F)cc3)C(=O)C2=O)cc1 | 783 s |
| CC(C)c1nnc(-c2ccc(S(=O)(=O)N3CCCCC3)o2)o1 | 890 s |
| CS(=O)(=O)N1CCC(OC2CCN(C(=O)Nc3cccc(F)c3)CC2)CC1 | 720 s |
| CCC(CC)NC(=O)C1Cn2cccc2C(=O)N1CC(C)C (stereo not given) | 756 s |
| O=C(c1csc(S(=O)(=O)N2CCC(C(=O)N3CCCCCC3)CC2)c1)N1CCOCC1 | 722 s |
| CCCNC(=O)CSc1ccc(-n2nc3c(c2C)CCC3)nn1 | 865 s |
| CCCN1N=C(C(=O)N2CCOCC2)S(=O)(=O)c2cc(Cl)ccc21 | 813 s |
| Cc1oc(C2CCN(C(=O)Cc3c(F)cccc3Cl)CC2)nc1C(=O)N1CCCCC1 | 886 s |
| Cc1cc(C(=O)N2CCC3(CC2)NCc2ccccc2-n2ccnc23)nn1C | 576 s |
| COc1ccc2c(c1)C1(CCN(C(=O)c3cccc(F)c3)C1)C(=O)N2 (stereo not given) | 717 s |
| CCOc1cc(=O)n2c(c1C(=O)Nc1ccc(Cl)c(C)c1)CCCC2 | 829 s |
| COc1ccc(NC(=O)C2CCN(C(=O)C3Sc4ccccc4NC3=O)CC2)cc1OC (stereo not given) | 692 s |
| Cc1cc(N2CCN(C)CC2)nc2ccc(NC(=O)NC3CCCC3)cc12 | 568 s |
| CCc1ccc(S(=O)(=O)N2CCC3(CC2)NCCN=C3NCc2cccc(F)c2)cc1 | 772 s |
| COc1ccc(CNC(=O)NCC2CCN(S(=O)(=O)C3CC3)CC2)cc1 | 662 s |

| Structure (SMILES) | RP-LC retention time |
| --- | --- |
| CC(C)NCc1ccc(-c2ccccc2Cl)o1 | 673 s |
| O=C1COc2cccnc2N1 | 648 s |
| CCCCCNC(=O)c1sc2ncccc2c1-n1cccc1 | 1080 s |
| CCOC(=O)c1c(S(=O)(=O)N2CCC(C(=O)NC3CCCCCCC3)CC2)c(C)n(C)c1C | 932 s |
| CN(Cc1nc(-c2ccc(N3CCCCC3)nc2)no1)C1CCCCC1 | 666 s |
| CN(CC1CCOC1)C(=O)c1cc(F)cc(F)c1 (stereo not given) | 690 s |
| Cc1ccc2c(c1)N(S(C)(=O)=O)CCC(C(=O)Nc1ccccc1Cl)O2 (stereo not given) | 1030 s |
| CCCN(CC1CCOC1)C(=O)Nc1ccc(OCC)cc1 (stereo not given) | 750 s |
| CCC1CCCCN1CCCNC(=O)Cn1ccc2cc(S(=O)(=O)N3CCCCCC3)ccc21 (stereo not given) | 704 s |
| CCNC(=O)C1CCCN(C(=O)Nc2ccc(NC(=O)Nc3ccc(OC)cc3)cc2)C1 (stereo not given) | 678 s |
| CCC(C)C(NC(=O)Cc1ccc(OC)c(Cl)c1)C(=O)Nc1nc2ccccc2[nH]1 (stereo not given) | 762 s |
| COc1ccccc1OCCC1CCN(S(=O)(=O)c2c(C)nn(C)c2C)C1 (stereo not given) | 861 s |
| O=S(=O)(Nc1ccc(F)cc1)c1ccc(-c2nnc(C3CCC3)o2)o1 | 888 s |
| CCc1ccc(CNC(=O)c2ccc3[nH]c4c(c3c2)CN(C(C)=O)CC4)cc1 | 680 s |
| CCC1CCCCN1CCCNC(=O)CCCn1c(=O)c2cccn2c2ccccc21 (stereo not given) | 641 s |
| COc1ccc(NC(=O)C2CCN(c3cncnc3N3CCN(C)CC3)CC2)cc1Cl | 585 s |
| CCOCCCNC(=O)N1CCN(c2nnc(C)c3c(C)n(-c4ccc(C)cc4)nc23)CC1 | 669 s |
| Cn1ncc2c3ccccc3n(CC(=O)NCCCN3CCCC3)c2c1=O | 592 s |
| O=C(Nc1ccccc1)N1CCC(N2C[C@H]3C[C@H](C2)[C@H]2CCCC(=O)N2C3)CC1 | 590 s |
| CCOc1ccccc1-c1c(C#N)c(N)nc2c1c(=O)n(C)c(=O)n2C | 786 s |
| CN(C)CCn1cc(C(=O)NCc2cccs2)ccc1=O | 578 s |
| COc1ccc(CC(=O)N2CCc3c(c(CO)nn3CC3CC3)C2)cc1 | 715 s |
| Cc1ccc(CNC(=O)CSCc2nc3cccnc3n2C2CCCCC2)o1 | 877 s |
| CCOC(=O)C(C)NC(=O)Nc1cc(F)c2nc(N3CCOCC3)ccc2c1 (stereo not given) | 812 s |

Other lines, results leading:

| RP-LC retention time | Structure (SMILES) |
| --- | --- |
| 818 s | O=C(Cn1c(=O)n(Cc2ccc3c(c2)OCO3)c(=O)c2ncccc21)c1ccccc1 |
| 1010 s | Cc1noc(C)c1-c1ccc(S(=O)(=O)Nc2ccc(Br)cc2F)cc1 |
| 728 s | Cc1ccc(-c2nc3cccnc3n2C2CCN(S(=O)(=O)c3cccnc3)C2)cc1 (stereo not given) |
| 995 s | Fc1cccc(-c2noc(Cc3nnc(-c4ccc(Cl)cc4)o3)n2)c1 |
| 651 s | CN(C)c1cc(C(=O)Nc2ccccc2)c2ccccc2n1 |
| 1310 s | CCCCOc1ccc(-c2nc(C3CC(=O)N(c4ccc(C)cc4)C3)no2)cc1 (stereo not given) |
| 1020 s | O=c1ccc(-c2ccc(Br)cc2)nn1Cc1nc(-c2cccs2)no1 |
| 1360 s | Cc1ccc(-n2nc(C)c3sc(N4CCCC(C(=O)Nc5cc(Cl)ccc5C)C4)nc32)cc1 (stereo not given) |
| 760 s | O=C(NCc1cccc(Cl)c1)C1CCN(C(=O)c2ncn3c2COC(c2ccccc2)C3)CC1 (stereo not given) |
| 753 s | COc1cc2c(cc1OC)C1C(C(=O)NCc3ccc4c(c3)OCO4)c3ccccc3C(=O)N1CC2 (stereo not given) |
| 824 s | CC(=O)N1CCCc2cc(S(=O)(=O)CCC(=O)Nc3ccc(Br)cc3F)ccc21 |
| 705 s | COc1ccc(-c2cc(N3CCC(NC(=O)c4ccc(OC)cc4OC)C3)n[nH]2)cc1 (stereo not given) |
| 733 s | Cc1cc(C(=O)Nc2c3c(nn2-c2ccccc2)CCC3)nn1C |
| 749 s | CC(C)c1nnc(-c2cccnc2N2CCN(C(=O)c3ccc4[nH]ccc4c3)CC2)o1 |
| 1180 s | CCCCOc1ccc(C(=O)N2CCCC2c2nc(-c3ccc(OC)cc3)no2)cc1 (stereo not given) |
| 828 s | Cc1ccc(-c2noc(-c3sccc3NC(=O)C3(c4ccccc4)CC3)n2)cc1 |
| 930 s | O=S(=O)(c1cccn2c(SCc3cccc(Br)c3)nnc12)N1CCCCC1 |
| 895 s | CCc1nc(OCC(=O)Nc2ccc(C)cc2Br)c2ccccc2n1 |
| 922 s | COc1ccc(-c2noc(C3CC(=O)N(c4cc(C)cc(C)c4)C3)n2)cc1OC (stereo not given) |
| 648 s | COc1ccc(C(=O)NC(C)C(=O)Nc2nc3ccccc3[nH]2)cc1 (stereo not given) |
| 812 s | Cc1ccc(-c2nnc(Cc3nc(-c4cccnc4)no3)o2)cc1F |

| RP-LC retention time | Structure (SMILES) |
| --- | --- |
| 566 s | COC(=O)c1c(NCc2cccnc2)c2cccc(Cl)c2[nH]c1=O |
| 879 s | CN1C(=O)c2cc(S(=O)(=O)Nc3cccc(F)c3)ccc2Oc2cccnc21 |
| 1050 s | O=C(CCCc1nc2ccccc2s1)N1CCC(CCOc2ccccc2)C1 (stereo not given) |
| 622 s | Cc1cc(NC(=O)c2cccc(N3C(=O)CCC3=O)c2)on1 |
| 702 s | Fc1ccccc1-c1nc(-c2ccnc(N3CCCC3)c2)no1 |
| 667 s | Cn1c(C(=O)NC2CCN(Cc3ccccc3)CC2)cc2c(=O)oc3ccccc3c21 |
| 922 s | Cc1cc(-c2ccccc2)nc(Nc2nc(-c3ccccc3)c(CC(=O)O)s2)n1 |
| 836 s | Cc1cc(C)n(-c2ccnc(NCCc3cccs3)n2)n1 |
| 894 s | COc1ccccc1NC(=O)N1CCCC1c1nc(-c2ccccc2OC)no1 (stereo not given) |
| 792 s | O=C(c1cc2ccccc2[nH]1)N1CCN(c2cc(-c3ccccc3)[nH]n2)CC1 |
| 667 s | CN(C(=O)c1ccncc1)c1ccccc1 |
| 617 s | c1ccc(CSc2ccc(-c3ccc4c(c3)OCO4)nn2)nc1 |
| 760 s | CCOC(=O)c1ccc(Nc2ncnc3c2ncn3CC)cc1 |
| 1040 s | CCN(CC)S(=O)(=O)c1cc(-c2nnc(-c3ccccc3Cl)o2)ccc1OC |
| 870 s | COc1cccc(-c2noc(Cn3ccn(-c4cc(C)cc(C)c4)c(=O)c3=O)n2)c1OC |
| 1150 s | CC(C)n1nc(-c2nc(-c3cccc(Cl)c3)no2)ccc1=O |
| 1070 s | Cc1nn(-c2ccc(-c3noc(C4CC4)n3)cc2)cc1C(=O)Nc1cc(F)ccc1F |
| 892 s | Cc1ccc(C)c2sc(N(C)CC(=O)Nc3ccc(S(C)(=O)=O)cc3)nc12 |
| 902 s | Oc1cccc(-c2nc3cnc(Br)cn3c2Nc2cccc(C(F)(F)F)c2)c1 |
| 796 s | Cc1ccccc1CN1CCc2nc(N3CCN(c4ccccc4F)CC3)ncc2C1 |
